Results from US11384096B2, “Substituted azetidine dihydrothienopyridines and their use as phosphodiesterase inhibitors” (UNION therapeutics A/S, priority 2017, dated 2022).

Experiments:
[1] = biological target: human PDE4D catalytic domain (Homo sapiens (Human), UniProt Q08499); assay: PDE4 Assay (TR-FRET, cAMP cleavage); type: biochemical; settings: 50% inhibition of substrate cleavage, read-out: PDE4 IC50 range
Procedure: The human PDE4D catalytic domain (UniProt no. Q08499 [[…]]) was incubated with a mixture of non-labelled cAMP (cyclic adenosine monophosphate) and fluorescein amidite (FAM) conjugated cAMP and titrated test or reference compound. Following brief incubation the enzymatic reaction was stopped by addition of binding buffer containing nanoparticles with immobilized trivalent metal ions capable of binding 1) AMP phospho groups and 2) terbium (Tb) donor fluorophores. Subsequent excitation of the Tb donor triggers time-resolved FRET to adjacent FAM acceptor molecules resulting in light emission. In the presence of a PDE4 inhibitor, AMP generation was reduced resulting in a lower fluorescence signal. The cAMP phosphodiester is not bound by the detection system.
The results were calculated as the molar concentrations resulting in 50% inhibition of the substrate cleavage compared to controls samples, and are expressed as IC50 (nM).

[2] = tested on: Human peripheral blood mononuclear cells (PBMC), TNF-α release; assay: TNF-α release in LPS-stimulated PBMC; type: cell-based; settings: 30 minutes pre-incubation, stimulated for 18 hours with lipopolysaccharide, read-out: TNF-α IC50 range
Procedure: Human peripheral blood mononuclear cells (PBMC) were isolated from buffy coats. The blood is mixed with saline at a ratio of 1:1, and the PBMC were isolated using Lymphoprep Tubes™ (Nycomed, Norway). The PBMC were suspended in RPMI1640 with 0.5% human serum albumin, pen/strep and 2 mM L-glutamine at a concentration of 5×105 c/ml. The cells were pre-incubated for 30 minutes with the test compounds in 96 well tissue culture plates and stimulated for 18 hours with lipopolysaccharide […] (Sigma). TNF-α concentration in the supernatants was measured using homogeneous time-resolved fluorescence resonance (TR-FRET). The assay is quantified by measuring fluorescence at 665 nm (proportional to TNF-α concentration) and 620 nm (control).
Results were expressed as IC50 values calculated from inhibition curves using as positive controls the secretion in LPS stimulated wells and as negative controls the secretion in unstimulated cells.

Sequence of human PDE4D catalytic domain (Q08499 380-740 limits assumed): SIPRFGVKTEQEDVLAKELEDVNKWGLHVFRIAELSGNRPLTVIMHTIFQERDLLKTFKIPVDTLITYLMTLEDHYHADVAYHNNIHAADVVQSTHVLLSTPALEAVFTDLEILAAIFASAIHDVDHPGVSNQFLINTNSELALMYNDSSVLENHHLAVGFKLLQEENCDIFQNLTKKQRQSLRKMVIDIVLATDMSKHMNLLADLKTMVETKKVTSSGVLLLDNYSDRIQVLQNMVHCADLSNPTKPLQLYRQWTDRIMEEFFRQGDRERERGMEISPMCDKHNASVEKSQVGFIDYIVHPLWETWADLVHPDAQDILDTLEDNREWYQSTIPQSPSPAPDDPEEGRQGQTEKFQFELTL

SMILES | IC50 [1] [µM] | IC50 [2] [µM]
[O-][S+]1CCc2nc(N3CC(c4ccc(F)cc4)C3)cc(NC3CCOCC3)c21 (stereo in doubt) [Example 1, (1R)-5-(3-(4-Fluorophenyl)azetidin-1-yl)-7-((tetrahydro-2H-pyran-4-yl)amino)-2,3-dihydrothieno[3,2-b]pyridine 1-oxide] | 0.01 to 0.05 | < 0.01
[O-][S+]1CCc2nc(N3CC(Oc4ccc(F)cc4)C3)cc(NC3CCOCC3)c21 (stereo in doubt) [Example 4, (1R)-5-(3-(4-Fluorophenoxy)azetidin-1-yl)-7-((tetrahydro-2H-pyran-4-yl)amino)-2,3-dihydrothieno[3,2-b]pyridine-1-oxide] | 0.01 to 0.05 | 0.01 to 0.05
COC(=O)N1CCC[C@@H](Nc2cc(N3CC(c4ccc(F)cc4)C3)nc3c2[S@+]([O-])CC3)C1 [Example 2, Methyl (3R)-3-[[(1R)-5-[3-(4-fluorophenyl)azetidin-1-yl]-1-oxido-2,3-dihydrothieno-[3,2-b]pyridin-7-yl]amino]piperidine-1-carboxylate] | < 0.01 | < 0.01
COC(=O)N1CCC[C@@H](Nc2cc(N3CC(c4ccccc4)C3)nc3c2[S@+]([O-])CC3)C1 [Example 3] | < 0.01 | < 0.01
COC(=O)N1CC[C@H](Nc2cc(N3CC(Oc4ccc(F)cc4)C3)nc3c2[S@+]([O-])CC3)C1 [Example 5, Methyl (3S)-3-[[(1R)-5-[3-(4-fluorophenoxy)azetidin-1-yl]-1-oxido-2,3-dihydrothieno[3,2-b]pyridine-7-yl]amino]pyrrolidine-1-carboxylate] | 0.05 to 0.15 | 0.05 to 0.15
CC(=O)N1CC[C@H](Nc2cc(N3CC(Oc4ccc(F)cc4)C3)nc3c2[S@+]([O-])CC3)C1 [Example 6, 1-[(3S)-3-[[(1R)-5-[3-(4-Fluorophenoxy)azetidin-1-yl]-1-oxido-2,3-dihydrothieno[3,2-b]pyridin-7-yl]amino]pyrrolidin-1-yl]ethanone] | < 0.01 | 0.01 to 0.05
[O-][S@+]1CCc2nc(N3CC(c4ccccc4)C3)cc(NC3CCOCC3)c21 [Example 7, (1R)-5-(3-Phenylazetidin-1-yl)-7-((tetrahydro-2H-pyran-4-yl)amino)-2,3-dihydrothieno[3,2-b]pyridine-1-oxide] | 0.01 to 0.05 | 0.01 to 0.05
